Source: PubChem BioAssay (NCI)
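Values below derive from 48-hour exposures of cells grown in 96-well plates, with endpoints linearly interpolated between the two concentrations bracketing the appropriate inhibition level. The concentration for 50% growth inhibition is given as GI50. TGI: total growth inhibition.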

Assays:
Assay in all cases: inhibition of tumour cell growth, NCI panel, 48 h
A549 NSCLC = test system: A549 NSCLC
SNB-75 CNS = test system: SNB-75 CNS
SF-268 CNS = test system: SF-268 CNS
SNB-19 CNS = test system: SNB-19 CNS
A498 renal = test system: A498 renal
MCF7 breast = test system: MCF7 breast
SK-MEL-5 melanoma = test system: SK-MEL-5 melanoma
SR leukemia = test system: SR leukemia
LOX IMVI melanoma = test system: LOX IMVI melanoma
SK-MEL-28 melanoma = test system: SK-MEL-28 melanoma

COc1ccc(-c2nnc(COc3ccc(NC(=O)Nc4cc(C(F)(F)F)cc(C(F)(F)F)c4)cc3F)o2)cc1
GI50 (A549 NSCLC): 1.58 µM | TGI (A549 NSCLC): 7.15 µM | GI50 (SNB-75 CNS): 2.02 µM | TGI (SNB-75 CNS): 6.37 µM | GI50 (SF-268 CNS): 3.04 µM | TGI (SF-268 CNS): 9.94 µM | GI50 (SNB-19 CNS): 3.33 µM | TGI (SNB-19 CNS): 15.7 µM | GI50 (A498 renal): 1.56 µM | TGI (A498 renal): 5.03 µM | GI50 (MCF7 breast): 2 µM | TGI (MCF7 breast): 5.04 µM | GI50 (SK-MEL-5 melanoma): 1.73 µM | TGI (SK-MEL-5 melanoma): 3.84 µM | GI50 (SR leukemia): 2.19 µM | TGI (SR leukemia): 5.95 µM | GI50 (LOX IMVI melanoma): 1.95 µM | TGI (LOX IMVI melanoma): 4.42 µM | GI50 (SK-MEL-28 melanoma): 2.4 µM | TGI (SK-MEL-28 melanoma): 6.85 µM

CCN(CC)c1ccc(-c2cc(-c3cc(OC)c(OC)c(OC)c3)nc(N3CCOCC3)c2C#N)cc1
GI50 (A549 NSCLC): 1.37 µM | TGI (A549 NSCLC): > 100 µM | GI50 (SNB-75 CNS): 1.02 µM | TGI (SNB-75 CNS): 12 µM | GI50 (SF-268 CNS): 5.96 µM | TGI (SF-268 CNS): > 100 µM | GI50 (SNB-19 CNS): 12.8 µM | TGI (SNB-19 CNS): > 100 µM | GI50 (A498 renal): 2.88 µM | TGI (A498 renal): 39.5 µM | GI50 (MCF7 breast): 2.03 µM | TGI (MCF7 breast): 17.7 µM | GI50 (SK-MEL-5 melanoma): 0.219 µM | TGI (SK-MEL-5 melanoma): 0.845 µM | GI50 (SR leukemia): 0.163 µM | TGI (SR leukemia): 0.672 µM | GI50 (LOX IMVI melanoma): 0.189 µM | TGI (LOX IMVI melanoma): 0.791 µM | GI50 (SK-MEL-28 melanoma): 4.78 µM | TGI (SK-MEL-28 melanoma): > 63.5 µM

COc1ncnc(NS(=O)(=O)c2ccc(N=C3C(=O)N(CN4CCN(c5c(F)cc6c(=O)c(C(=O)O)cn(C7CC7)c6c5OC)CC4C)c4ccc(Cl)cc43)cc2)c1OC (stereo not given)
GI50 (A549 NSCLC): 21.2 µM | TGI (A549 NSCLC): > 50 µM | GI50 (SNB-75 CNS): > 50 µM | TGI (SNB-75 CNS): > 50 µM | GI50 (SF-268 CNS): 10.7 µM | TGI (SF-268 CNS): > 50 µM | GI50 (SNB-19 CNS): > 50 µM | TGI (SNB-19 CNS): > 50 µM | GI50 (A498 renal): 40.8 µM | TGI (A498 renal): > 50 µM | GI50 (MCF7 breast): 12 µM | TGI (MCF7 breast): > 50 µM | GI50 (SK-MEL-5 melanoma): 8.63 µM | TGI (SK-MEL-5 melanoma): 16.5 µM | GI50 (SR leukemia): 5.3 µM | TGI (SR leukemia): > 50 µM | GI50 (LOX IMVI melanoma): 6.89 µM | TGI (LOX IMVI melanoma): 15.6 µM | GI50 (SK-MEL-28 melanoma): 26.1 µM | TGI (SK-MEL-28 melanoma): > 50 µM

Fc1cc2[nH]ncc2c2c3c(c(-c4cn[nH]c4)nc12)CCCC3
GI50 (A549 NSCLC): 0.844 µM | TGI (A549 NSCLC): > 100 µM | GI50 (SNB-75 CNS): 0.994 µM | TGI (SNB-75 CNS): 2.32 µM | GI50 (SF-268 CNS): 1.31 µM | TGI (SF-268 CNS): 4.01 µM | GI50 (SNB-19 CNS): 1.65 µM | TGI (SNB-19 CNS): 17.1 µM | GI50 (A498 renal): 0.365 µM | TGI (A498 renal): 1.64 µM | GI50 (MCF7 breast): 1.45 µM | TGI (MCF7 breast): 12.8 µM | GI50 (SK-MEL-5 melanoma): 0.552 µM | TGI (SK-MEL-5 melanoma): 2.12 µM | GI50 (SR leukemia): 0.355 µM | TGI (SR leukemia): > 100 µM | GI50 (LOX IMVI melanoma): 0.486 µM | TGI (LOX IMVI melanoma): 2.4 µM | GI50 (SK-MEL-28 melanoma): 1.19 µM | TGI (SK-MEL-28 melanoma): 3.88 µM

CN1CCN(CCCn2c(=O)c3sc4ncccc4c3n3nnc(-c4ccccc4)c23)CC1
GI50 (A549 NSCLC): 6.81 µM | TGI (A549 NSCLC): 13.8 µM | GI50 (SNB-75 CNS): 6.82 µM | TGI (SNB-75 CNS): 13.3 µM | GI50 (SF-268 CNS): 6.45 µM | TGI (SF-268 CNS): 13.2 µM | GI50 (SNB-19 CNS): 8.41 µM | TGI (SNB-19 CNS): 15.8 µM | GI50 (A498 renal): 0.159 µM | TGI (A498 renal): 9.37 µM | GI50 (MCF7 breast): 7.69 µM | TGI (MCF7 breast): 15 µM | GI50 (SK-MEL-5 melanoma): 7.21 µM | TGI (SK-MEL-5 melanoma): 13.8 µM | GI50 (SR leukemia): 1.11 µM | TGI (SR leukemia): 2.57 µM | GI50 (LOX IMVI melanoma): 5.33 µM | TGI (LOX IMVI melanoma): 11.5 µM | GI50 (SK-MEL-28 melanoma): 8.73 µM | TGI (SK-MEL-28 melanoma): 15.8 µM

COc1ccc(-c2nnc(COc3ccc(C(=O)/C=C/c4ccco4)cc3)o2)cc1
GI50 (A549 NSCLC): 3.33 µM | TGI (A549 NSCLC): 13.8 µM | GI50 (SNB-75 CNS): 3.04 µM | TGI (SNB-75 CNS): 14.5 µM | GI50 (SF-268 CNS): 2.76 µM | TGI (SF-268 CNS): 8.25 µM | GI50 (SNB-19 CNS): 5.56 µM | TGI (SNB-19 CNS): 18.2 µM | GI50 (A498 renal): 11.4 µM | TGI (A498 renal): 23.6 µM | GI50 (MCF7 breast): 1.39 µM | TGI (MCF7 breast): 3.28 µM | GI50 (SK-MEL-5 melanoma): 3.16 µM | TGI (SK-MEL-5 melanoma): 11.1 µM | GI50 (SR leukemia): 1.52 µM | TGI (SR leukemia): 7.28 µM | GI50 (LOX IMVI melanoma): 1.71 µM | TGI (LOX IMVI melanoma): 3.18 µM | GI50 (SK-MEL-28 melanoma): 2.33 µM | TGI (SK-MEL-28 melanoma): 5.41 µM

O=C(Nc1ccc(Cl)cc1)c1cccc(NC2=C(Cl)C(=O)N(Cc3ccccc3)C2=O)c1
GI50 (A549 NSCLC): 14.8 µM | TGI (A549 NSCLC): 28 µM | GI50 (SNB-75 CNS): 8.88 µM | TGI (SNB-75 CNS): 25.1 µM | GI50 (SF-268 CNS): 11.6 µM | TGI (SF-268 CNS): 30.1 µM | GI50 (SNB-19 CNS): 17.6 µM | TGI (SNB-19 CNS): 45.9 µM | GI50 (A498 renal): 19.9 µM | TGI (A498 renal): 47.1 µM | GI50 (MCF7 breast): 10.3 µM | TGI (MCF7 breast): 42.3 µM | GI50 (SK-MEL-5 melanoma): 8.15 µM | TGI (SK-MEL-5 melanoma): 20.9 µM | GI50 (SR leukemia): 3.56 µM | TGI (SR leukemia): 14.9 µM | GI50 (LOX IMVI melanoma): 11.1 µM | TGI (LOX IMVI melanoma): 23.2 µM | GI50 (SK-MEL-28 melanoma): 25.7 µM | TGI (SK-MEL-28 melanoma): > 100 µM

O=c1c2sccc2n(CC2COc3ccccc3O2)c(=O)n1O (stereo not given)
GI50 (A549 NSCLC): 23.3 µM | TGI (A549 NSCLC): > 100 µM | GI50 (SNB-75 CNS): 3.81 µM | TGI (SNB-75 CNS): 56 µM | GI50 (SF-268 CNS): 13.6 µM | TGI (SF-268 CNS): > 100 µM | GI50 (SNB-19 CNS): 12.8 µM | TGI (SNB-19 CNS): > 100 µM | GI50 (A498 renal): 13.3 µM | TGI (A498 renal): 38.1 µM | GI50 (MCF7 breast): 5.17 µM | TGI (MCF7 breast): > 100 µM | GI50 (SK-MEL-5 melanoma): 17.1 µM | TGI (SK-MEL-5 melanoma): 61.1 µM | GI50 (SR leukemia): 8.1 µM | TGI (SR leukemia): > 100 µM | GI50 (LOX IMVI melanoma): 6.45 µM | TGI (LOX IMVI melanoma): > 100 µM | GI50 (SK-MEL-28 melanoma): 14.5 µM | TGI (SK-MEL-28 melanoma): > 100 µM

COc1cccc(-c2nc(-c3ccc(NC(=O)C(C)C)cc3)[nH]c2-c2ccnc(Br)c2)c1
GI50 (A549 NSCLC): 3.45 µM | TGI (A549 NSCLC): > 100 µM | GI50 (SNB-75 CNS): 0.488 µM | TGI (SNB-75 CNS): > 100 µM | GI50 (SF-268 CNS): 4.07 µM | TGI (SF-268 CNS): > 100 µM | GI50 (SNB-19 CNS): 3.76 µM | TGI (SNB-19 CNS): > 100 µM | GI50 (A498 renal): 1.84 µM | TGI (A498 renal): 6.62 µM | GI50 (MCF7 breast): 1.67 µM | TGI (MCF7 breast): 5.2 µM | GI50 (SK-MEL-5 melanoma): 1.8 µM | TGI (SK-MEL-5 melanoma): 3.32 µM | GI50 (SR leukemia): 2.41 µM | TGI (SR leukemia): > 100 µM | GI50 (LOX IMVI melanoma): 1.61 µM | TGI (LOX IMVI melanoma): 3.38 µM | GI50 (SK-MEL-28 melanoma): 2.78 µM | TGI (SK-MEL-28 melanoma): > 100 µM

N=Nc1c(OC(=O)Nc2cccc(Cl)c2)[nH]c2ccccc12
TGI (A549 NSCLC): 18.7 µM | TGI (SNB-75 CNS): 17.9 µM | TGI (SF-268 CNS): 27.9 µM | TGI (SNB-19 CNS): 18.5 µM | TGI (A498 renal): 26.1 µM | TGI (MCF7 breast): 23.5 µM | TGI (SK-MEL-5 melanoma): 24 µM | TGI (SR leukemia): 44.5 µM | TGI (LOX IMVI melanoma): 20.8 µM | TGI (SK-MEL-28 melanoma): 28 µM
